Measured values published in ChEMBL document CHEMBL6153042, “Glycoconjugates of adefovir and tenofovir as asialoglycoprotein-mediated Anti-HBV prodrugs with enhanced liver targeting” (Eur J Med Chem, 2025).

Assays:
[1] = Toxicity in Kunming mouse assessed as histopathological changes in liver at 200 mg/kg, iv once daily for 5 days by H and E staining based analysis; assay type: organism-based; details: in vivo, 120 h, time 5 day
[2] = Toxicity in Kunming mouse assessed as effect on body weight at 100 to 200 mg/kg, iv administered once daily for 5 days; assay type: organism-based; details: in vivo, 120 h, dose 100-200 mg/kg, time 5 day
[3] = test system: LX-2; assay: Cytotoxicity against human LX2 cells at 5 uM incubated for 48 hrs by CCK8 assay; assay type: toxicity, cell-based; details: lx-2, 48 h
[4] = Toxicity in Kunming mouse assessed as maximum tolerated dose administered intravenously as once daily dose for 5 days; details: in vivo, route iv, time 5 day
[5] = test system: LX-2; assay: Cytotoxicity against human LX2 cells assessed as cell growth inhibition at 10 uM incubated for 48 hrs by CCK8 assay relative to control; assay type: toxicity, cell-based; details: lx-2, 48 h, 10 µM
[6] = Cytotoxicity against human HepG2.2.15 cells assessed as inhibition of cell proliferation by CCK8 assay; assay type: toxicity, cell-based, HepG2 2.2.15
[7] = test system: Hepatitis B virus; assay: Antiviral activity against Hepatitis B virus infected in human HepG2.2.15 cells assessed as inhibition of HBV DNA replication incubated for 10 day by qPCR analysis; assay type: functional, organism-based; details: HepG2.2.15, 240 h
[8] = Selectivity index, the ratio of CC50 for human HepG2.2.15 cells to EC50 for antiviral activity against HBV in human HepG2.2.15 cells assessed as inhibition of HBV DNA replication; assay type: toxicity, cell-based; details: read-out: Ratio CC50/EC50
[9] = Toxicity in Kunming mouse assessed as histopathological changes in heart at 200 mg/kg, iv once daily for 5 days by H and E staining based analysis; assay type: organism-based; details: in vivo, 120 h, time 5 day
[10] = Toxicity in Kunming mouse assessed as histopathological changes in kidney at 200 mg/kg, iv once daily for 5 days by H and E staining based analysis; assay type: organism-based; details: in vivo, 120 h, time 5 day
[11] = Stability of compound in PBS buffer assessed as half-life by high-performance liquid chromatography; assay type: physicochemical
[12] = Drug uptake in Sprague-Dawley rat liver at 10 mg/kg, iv measured after 1 to 6 hrs by LC-MS/MS analysis; assay type: ADME, organism-based; details: in vivo, time 1-6 hrs
[13] = Drug metabolism in plasma of Sprague-Dawley rat assessed as (1-(36-(((2R,3R,4S,5R,6R)-3-acetamido-4,5-dihydroxy-6-(hydroxymethyl)tetrahydro-2H-pyran-2-yl)oxy)-21,21-bis((3-((3-(5-(((2R,3R,4S,5R,6R)-3-acetamido-4,5-dihydroxy-6-(hydroxymethyl)tetrahydro-2H-pyran-2-yl)oxy)pentanamido)propyl)amino)-3-oxopropoxy)methyl)-16,19,26,32-tetraoxo-3,6,9,12,23-pentaoxa-15,20,27,31-tetraazahexatriacontyl)-1H-1,2,3-triazol-4-yl)methyl hydrogen ((((R)-1-(6-amino-9H-purin-9-yl)propan-2-yl)oxy)methyl)phosphonate formation measured at 2.1 mins by HPLC analysis; assay type: ADME, cell-free; details: 0.035 h
[14] = Toxicity in Kunming mouse assessed as effect on heart colour at 100 to 200 mg/kg, iv once daily for 5 days; assay type: organism-based; details: in vivo, 120 h, dose 100-200 mg/kg, time 5 day
[15] = Toxicity in Kunming mouse assessed as effect on liver colour at 100 to 200 mg/kg, iv once daily for 5 days; assay type: organism-based; details: in vivo, 120 h, dose 100-200 mg/kg, time 5 day
[16] = Toxicity in Kunming mouse assessed as effect on kidney colour at 100 to 200 mg/kg, iv once daily for 5 days; assay type: organism-based; details: in vivo, 120 h, dose 100-200 mg/kg, time 5 day
[17] = Toxicity in Kunming mouse assessed as effect on heart size at 100 to 200 mg/kg, iv once daily for 5 days; assay type: organism-based; details: in vivo, 120 h, dose 100-200 mg/kg, time 5 day
[18] = Toxicity in Kunming mouse assessed as effect on liver size at 100 to 200 mg/kg, iv once daily for 5 days; assay type: organism-based; details: in vivo, 120 h, dose 100-200 mg/kg, time 5 day
[19] = Toxicity in Kunming mouse assessed as effect on kidney size at 100 to 200 mg/kg, iv once daily for 5 days; assay type: organism-based; details: in vivo, 120 h, dose 100-200 mg/kg, time 5 day
[20] = Toxicity in Kunming mouse assessed as effect on heart weight at 100 to 200 mg/kg, iv once daily for 5 days; assay type: organism-based; details: in vivo, 120 h, dose 100-200 mg/kg, time 5 day
[21] = Toxicity in Kunming mouse assessed as effect on liver weight at 100 to 200 mg/kg, iv once daily for 5 days; assay type: organism-based; details: in vivo, 120 h, dose 100-200 mg/kg, time 5 day
[22] = Toxicity in Kunming mouse assessed as effect on kidney weight at 100 to 200 mg/kg, iv once daily for 5 days; assay type: organism-based; details: in vivo, 120 h, dose 100-200 mg/kg, time 5 day
[23] = test system: Hepatitis B virus; assay: Antiviral activity against Hepatitis B virus infected in human HepG2.2.15 cells assessed as inhibition of HBV DNA replication incubated for 9 day; details: HepG2.2.15, 216 h

In the case of `CC(=O)N[C@H]1[C@H](OCCCCC(=O)NCCCNC(=O)CCOCC(COCCC(=O)NCCCNC(=O)CCCCO[C@@H]2O[C@H](CO)[C@H](O)[C@@H](O)[C@H]2NC(C)=O)(COCCC(=O)NCCCNC(=O)CCCCO[C@@H]2O[C@H](CO)[C@H](O)[C@@H](O)[C@H]2NC(C)=O)NC(=O)CCC(=O)NCCOCCOCCOCCOCCn2cc(COP(=O)(CO[C@H](C)Cn3cnc4c(N)ncnc43)OCOC(=O)OC(C)C)nn2)O[C@H](CO)[C@H](O)[C@H]1O` (stereo not given in full), the Activity [1] is reported as “Non-toxic”, the Activity [2] is reported as “Non-toxic” and the Activity [3] is reported as “Toxic”. For the same compound, the MTD at 120 h [4] was about 200 mg/kg, the Activity [5] was “Toxic” and the CC50 [6] was over 100 µM. For the same compound, the EC50 [7] was 0.0948 µM, the selectivity ratio [8] was over 1050 and the Activity [9] was “Non-toxic”. For the same compound, the Activity [10] was “Non-toxic”, the half-life [11] was over 24 h and the Drug uptake [12] was “Active”. For the same compound, the Drug metabolism [13] was “metabolite_detected”, the Activity [14] was “Non-toxic” and the Activity [15] was “Non-toxic”. The Activity [16] was “Non-toxic”, the Activity [17] was “Non-toxic” and the Activity [18] was “Non-toxic”. For the same compound, the Activity [19] was “Non-toxic”, the Activity [20] was “Non-toxic” and the Activity [21] was “Non-toxic”. The Activity [22] was “Non-toxic”.
With `CC(C)OC(=O)[C@H](C)N[P@](=O)(CO[C@H](C)Cn1cnc2c(N)ncnc21)Oc1ccccc1` [TENOFOVIR ALAFENAMIDE] the Activity [3] was “Toxic”, the Activity [5] was “Toxic” and the EC50 [23] was 0.0122 µM.
